# Laboratory results as given in patent publication US20240115875A1, “Systems, Methods, and Substances for Controlled Endoluminal Energy Application” (Dream Big Biotechnologies B.V., priority 2021, published 2024).
# Tests used:
# tumor tissue [1] = details: input of the simulation, cited from earlier work; for Tumor uptake: assumed tissue uptake; for Molar extinction coefficient ϵ: at the wavelength given with each photosensitizer (630-690 nm)
# tumor tissue [2] = assay: Estimated PDT threshold doses for several photosensitizers (photodynamic threshold model); details: in tumor, from uptake and molar weight
# Description: In these simulations, we assumed intravenous administration of a light-absorbing drug and the placement of a light emitter in the endovascular system at the site of tumor encroachment around it. Light absorbed by the photosensitizer was assumed to result in the local creation of short-lived cytotoxic radicals, causing cell death e.g. hemorrhagic tissue necrosis and apoptosis. To quantify the attainable effects, light-dose escalation studies were performed using Monte Carlo light propagation simulations (FullMonteCUDA) (“High-performance, robustly verified Monte Carlo simulation with FullMonte,” J. Biomed. Opt. 23(8), 085001 (2018)). The use of the photosensitizer BPD-MA mediated PDT was initially investigated in a simple “cube and tube” geometry representing the pancreas and a vessel traversing its center. The multilayered tube represented the vascular wall layers, intima, media and adventitia having an air-filled balloon with a linear line source in the center. […] Simulation properties were assigned as described above and PDT activation energies were escalated over the range of 10-100 J cm^−1 diffuser length, and the anticipated threshold dose in mJ·cm^−3 and radii of necrosis were estimated based on the photodynamic threshold model introduced by Patterson M, Wilson B C, Graff R: In vivo test of the concept of photodynamic threshold dose in normal rat liver photosensitized by aluminum chlorosulfunated phthalocyanine. Photochem Photobiol, 51(3): 343-349, 1990.
# The pancreatic model is shown in FIG. 7A comprising a 4×4×5 cm cube, one half is assigned with optical properties of normal pancreatic tissue and the other half with those of cancerous pancreatic tissues. Running through the cube's center is a blood vessel made up of three layers, intima, media, adventitia, with assigned properties from the literature for aortic tissues. An initial dose-escalation simulation investigated if an adequate fluence [J·cm^−2] can be delivered through the vessel wall to create a surgically sufficiently large circumferential necrotic margin (mm) surrounding the vessel, based on the photosensitizer accumulation and the sensitizer's molar extinction coefficient. The vessel's inner diameter and wall thickness were set to 7.0 mm and 1.30 mm, respectively. The energy emitting source was cylindrical in shape with a length of 20 mm and the irradiance at the intima surface was fixed at 200 mW·cm^−2. The exposure times escalated to deliver 10 to 100 J total energy. An example of the absorbed energy density as a function of radius from the vessel center is shown in FIG. 7B, with an estimated necrotic margin ranging from […]. The subsequent necrotic clearing of viable tumor tissue from the adventitia is predicted based on the threshold model for common photosensitizers, see Tables 1 and 2.
# [3] = In-vivo porcine model, heart rate and blood pressure during photosensitizer infusion; design: species or system Sus scrofa domesticus; details: for changes in blood pressure or heart rate during the injection: 5% i.v. dextrose drip
# Description: The preclinical experiments in pigs required some precautions.
# […] […] The animal gradually recovered after 10 to 20 min and stabilized to normal heart rates.
# [4] = tested on: porcine pancreas, splenic vein and artery; assay: In-vivo dose escalation in healthy porcine, endovascular balloon-catheter PDT, 48h CT and histopathology
# Description: The performance of Monte Carlo simulations determined that the photosensitizer verteporfin appears to be a suitable photosensitizer and that perivascular necrosis can occur when irradiating at relevant light dose ranges in a clinically acceptable time range of several minutes. In-vivo experiments were carried out in healthy porcine (n=7) delivering light irradiation from an endovascular balloon-catheter laser probe.
# The irradiating balloon catheter was placed in the splenic vein (crosshair) and an increasingly large hypodense margin, interpreted as PDT induced necrosis, can be observed for increasing doses.
# In FIG. 12A, the pancreas can be observed with the splenic vein, artery, and the approximate location of the irradiating balloon catheter. Radially extending into the pancreas is a circumferential margin of necrosis (dotted line and arrows, circa 10 mm).
# [5] = tested on: porcine pancreas and target vessels (splenic, hepatic, superior mesenteric artery)
# Description: Five large white porcine (Sus scrofa domesticus), weighing between 25-43 kg, were used as animal model, because the anatomy of the porcine pancreas and its vasculature closely resembles that of the human. Animals were handled according to the European Directive 2010/63 and French laws concerning animal protection in laboratories.
# Following the intravascular procedure, porcine recovered from anesthesia and were housed for a survival period of 24 hours up to one week. After the survival period the sedation protocol above was repeated and general anesthesia was induced using intravenous (18 G Intravenous catheter in-ear vein) propofol 3 mg/kg, followed by orotracheal intubation and maintained with rocuronium 0.8 mg/kg along with inhaled isoflurane 2%. At the end of the experiment, animals were euthanized with an intravenous injection of pentobarbital 40 mg/kg IV (Exagon ND, Axience).
# To counteract possible effects of BPD-MA on the porcine blood pressure, the antihistamine dexchlorpheniramine was given the days before and immediately prior to the start of photosensitizer infusion. Polaramine® was administered at 2 mg p.o. BID to TID the day before and Polaramine® 5 mg IV (slow bolus) 30 to 60 minutes before photosensitizer injection. Methylprednisolone SoluMedrol®120 (3 mg kg-1) was administered also IV (slow bolus) 30 to 60 minutes before photosensitizer injection. […]
# To visualize the pancreas and its target vessels for treatment planning, non-enhanced and contrast-enhanced CT scans were carried out shortly before treatment, in the early arterial and early portal venous phase. […] A 3D vascular roadmap was obtained via software manipulation (syngo.via, Siemens Healthineers AG, Germany) and the position, morphology and dimensions of the target vessels were assessed and used for later co-localization during the angiography-guided procedure and placement of a suitably sized PDT light source, being a prototype irradiating balloon catheter. […]
Molecule,Tumor uptake (tumor tissue [1]) [mg/g],Photosensitizer concentration (tumor tissue [2]),Molar extinction coefficient ϵ (tumor tissue [1]),"changes in heart rate during injection ([3]; first porcine, i.v. saline drip, without pre-medications, injection stopped at 0.2 mg kg^−1)","changes in blood pressure or heart rate during the injection ([3]; porcine 2-3, pre-medicated excluding heparin, 0.4 mg·kg^−1)","changes in blood pressure or heart rate during the injection ([3]; porcine 4-5, pre-medicated including heparin, 1.6 mg·kg^−1)","radius of apparent perivascular circumferential tissue necrosis ([4]; 0.4-3.2 mg/kg, light irradiation 8-25 minutes, 48h contrast-enhanced CT and histopathology, n=7)","artery and vein wall histopathology ([4]; L-size dose 1.6 mg/kg, 48h post PDT)","circumferential margin of necrosis extending into the pancreas, histopathology ([4]; L-size dose 1.6 mg/kg, 48h post PDT, H&E and EVG)","hypodense area around the target vessel on contrast-enhanced CT, extending outwards from the outer wall of the vessel (possible PDT-induced necrosis) ([5]; 0.4-1.6 mg·kg^−1 i.v., 690 nm, 150 mW·cm^−2, 75-225 J·cm^−2, CT 24 h to one week)",splenic arterial wall histopathology ([5]; in vivo),vessel structural integrity on contrast-enhanced CT ([5]; in vivo)
"Oc1cccc(-c2c3nc(c(-c4cccc(O)c4)c4ccc([nH]4)c(-c4cccc(O)c4)c4nc(c(-c5cccc(O)c5)c5ccc2[nH]5)CC4)C=C3)c1 [Temoporfin, 5,10,15,20-Tetra(m-hydroxyphenyl)chlorin]",0.5,,,,,,,,,,,
Photofrin,8.1,6.8 · 10^−6 M,"1,170 M^−1 cm^−1",,,,,,,,,
benzoporphyrin derivative monoacid ring A [Verteporfin],23.9,3.3 · 10^−5 M,"33,000 M^−1 cm^−1","Immediate changes occurred in the heart rate, decreasing to a degree that adrenaline was administered to stabilize the animal",No changes occurred in blood pressure or heart rate during the injection,No changes occurred in blood pressure or heart rate during the injection,2-15 mm,intact vessel unruptured walls albeit with atrophic muscular cells and ulcerated endothelial cells,circa 10 mm,2-6 mm,"endothelial loss and necrotic cellular tissues were observed, but the extracellular matrix containing collagen and elastin was preserved in some cases","no perforations, ruptures, and bleedings were observed"
c1ccc2c(c1)-c1nc-2nc2[nH]c(nc3nc(nc4[nH]c(n1)c1ccccc41)-c1ccccc1-3)c1ccccc21 [Phthalocyanine],12.3,2.3 · 10^−5 M,,,,,,,,,,
C=Cc1c(C)c2cc3nc(c(CC(=O)N[C@@H](CC(=O)O)C(=O)O)c4[nH]c(cc5nc(cc1[nH]2)C(C)=C5CC)c(C)c4C(=O)O)[C@@H](CCC(=O)O)[C@@H]3C [Talaporfin],1.62,2.2 · 10^−6 M,"40,000 M^−1 cm^−1",,,,,,,,,
